Results taken from ChEMBL document CHEMBL5247680, “Design, Synthesis, and Biological Activity of Thioguanine-Modified Pleuromutilin Derivatives” (ACS Med Chem Lett, 2023).
Values after ≈ are worked out from the molar mass of the structure shown.

What was measured:
Staphylococcus aureus [1] = assay: Selectivity ratio of MBC for antibacterial activity against Methicillin-sensitive Staphylococcus aureus ATCC 29213 to MIC for antibacterial activity against Methicillin-sensitive Staphylococcus aureus ATCC 29213
[2] = tested on: Staphylococcus epidermidis; assay: Selectivity ratio of MBC for antibacterial activity against Methicillin-sensitive Staphylococcus epidermidis […] to MIC for antibacterial activity against Methicillin-sensitive Staphylococcus epidermidis […]; type: functional
Staphylococcus aureus [3] = assay: Antibacterial activity against Methicillin-resistant Staphylococcus aureus ATCC 43300 assessed as bacterial growth inhibition incubated for 20 to 24 hrs by microbroth serial dilution assay; type: functional; details: time 20-24 hrs
Staphylococcus aureus [4] = assay: Antibacterial activity against Methicillin-resistant Staphylococcus aureus ATCC 33591 assessed as bacterial growth inhibition incubated for 20 to 24 hrs by microbroth serial dilution assay; type: functional; details: time 20-24 hrs
[5] = tested on: Staphylococcus epidermidis; assay: Antibacterial activity against Methicillin-sensitive Staphylococcus epidermidis ATCC 12228 assessed as bacterial growth inhibition incubated for 20 to 24 hrs by microbroth serial dilution assay; type: functional; details: time 20-24 hrs
[6] = tested on: Staphylococcus epidermidis; assay: Antibacterial activity against Methicillin-resistant Staphylococcus epidermidis ATCC 51625 assessed as bacterial growth inhibition incubated for 20 to 24 hrs by microbroth serial dilution assay; type: functional; details: time 20-24 hrs
Staphylococcus aureus [7] = assay: Antibacterial activity against Methicillin-sensitive Staphylococcus aureus ATCC 29213 assessed as bacterial growth inhibition incubated for 20 to 24 hrs by microbroth serial dilution assay
Staphylococcus aureus [8] = assay: Antibacterial activity against Staphylococcus aureus ATCC 25923 assessed as bacterial growth inhibition incubated for 20 to 24 hrs by microbroth serial dilution assay; type: functional; details: time 20-24 hrs
Staphylococcus aureus [9] = assay: Selectivity ratio of MBC for antibacterial activity against Staphylococcus aureus to MIC for antibacterial activity against Staphylococcus aureus; type: functional

C=C[C@]1(C)C[C@@H](OC(=O)CSc2nc(N)nc3c2ncn3C(=O)Nc2ccccc2Cl)[C@@]2(C)C3C(=O)CC[C@@]3(CC[C@H]2C)[C@@H](C)[C@@H]1O (stereo partly specified)
Ratio (Staphylococcus aureus [1]): 4
Ratio [2]: >4
MIC (Staphylococcus aureus [3]): 0.125 µg/mL (≈ 0.183 µM)
MIC (Staphylococcus aureus [4]): 0.125 µg/mL (≈ 0.183 µM)
MIC [5]: 0.0078 µg/mL (≈ 0.0114 µM)
MIC [6]: 0.0625 µg/mL (≈ 0.0917 µM)
MIC (Staphylococcus aureus [7]): 0.25 µg/mL (≈ 0.367 µM)
MIC (Staphylococcus aureus [8]): 0.125 µg/mL (≈ 0.183 µM)
Ratio (Staphylococcus aureus [9]): >4

C=C[C@]1(C)C[C@@H](OC(=O)CSc2nc(N)nc3c2ncn3C(=O)OC)[C@@]2(C)C3C(=O)CC[C@@]3(CC[C@H]2C)[C@@H](C)[C@@H]1O (stereo partly specified)
Ratio [2]: >4
MIC (Staphylococcus aureus [3]): 0.125 µg/mL (≈ 0.213 µM)
MIC (Staphylococcus aureus [4]): 0.125 µg/mL (≈ 0.213 µM)
MIC [5]: 0.0625 µg/mL (≈ 0.107 µM)
MIC [6]: 0.125 µg/mL (≈ 0.213 µM)
MIC (Staphylococcus aureus [7]): 0.5 µg/mL (≈ 0.854 µM)
MIC (Staphylococcus aureus [8]): 0.125 µg/mL (≈ 0.213 µM)
Ratio (Staphylococcus aureus [9]): >4

C=C[C@]1(C)C[C@@H](OC(=O)CSc2nc(N)nc3c2ncn3C(=O)Nc2ccccc2)[C@@]2(C)C3C(=O)CC[C@@]3(CC[C@H]2C)[C@@H](C)[C@@H]1O (stereo partly specified)
Ratio (Staphylococcus aureus [1]): 4
Ratio [2]: >4
MIC (Staphylococcus aureus [3]): 0.0625 µg/mL (≈ 0.0966 µM)
MIC (Staphylococcus aureus [4]): 0.125 µg/mL (≈ 0.193 µM)
MIC [5]: 0.0156 µg/mL (≈ 0.0241 µM)
MIC [6]: 0.125 µg/mL (≈ 0.193 µM)
MIC (Staphylococcus aureus [7]): 0.125 µg/mL (≈ 0.193 µM)
MIC (Staphylococcus aureus [8]): 0.125 µg/mL (≈ 0.193 µM)
Ratio (Staphylococcus aureus [9]): >4

C=C[C@]1(C)C[C@@H](OC(=O)CSc2nc(NC(=O)CCl)nc3[nH]cnc23)[C@@]2(C)C3C(=O)CC[C@@]3(CC[C@H]2C)[C@@H](C)[C@@H]1O (stereo partly specified)
Ratio [2]: >4
MIC (Staphylococcus aureus [3]): 0.5 µg/mL (≈ 0.828 µM)
MIC (Staphylococcus aureus [4]): 0.5 µg/mL (≈ 0.828 µM)
MIC [5]: 0.0156 µg/mL (≈ 0.0258 µM)
MIC [6]: 0.25 µg/mL (≈ 0.414 µM)
MIC (Staphylococcus aureus [7]): 0.5 µg/mL (≈ 0.828 µM)
MIC (Staphylococcus aureus [8]): 0.5 µg/mL (≈ 0.828 µM)
Ratio (Staphylococcus aureus [9]): >4

C=C[C@]1(C)C[C@@H](OC(=O)CSc2nc(NC(=O)CN3CCCCC3)nc3[nH]cnc23)[C@@]2(C)C3C(=O)CC[C@@]3(CC[C@H]2C)[C@@H](C)[C@@H]1O (stereo partly specified)
Ratio [2]: >4
MIC (Staphylococcus aureus [3]): 0.125 µg/mL (≈ 0.191 µM)
MIC (Staphylococcus aureus [4]): 0.125 µg/mL (≈ 0.191 µM)
MIC [5]: 0.5 µg/mL (≈ 0.766 µM)
MIC [6]: 0.5 µg/mL (≈ 0.766 µM)
MIC (Staphylococcus aureus [7]): 0.25 µg/mL (≈ 0.383 µM)
MIC (Staphylococcus aureus [8]): 0.0625 µg/mL (≈ 0.0957 µM)
Ratio (Staphylococcus aureus [9]): >4

C=C[C@]1(C)C[C@@H](OC(=O)CSc2nc(N)nc3c2ncn3C(=O)NCc2ccc(OC)cc2)[C@@]2(C)C3C(=O)CC[C@@]3(CC[C@H]2C)[C@@H](C)[C@@H]1O (stereo partly specified)
Ratio [2]: >4
MIC (Staphylococcus aureus [3]): 0.0625 µg/mL (≈ 0.0905 µM)
MIC (Staphylococcus aureus [4]): 0.0625 µg/mL (≈ 0.0905 µM)
MIC [5]: < 0.0312 µg/mL
MIC [6]: 0.0312 µg/mL (≈ 0.0452 µM)
MIC (Staphylococcus aureus [7]): 0.0625 µg/mL (≈ 0.0905 µM)
MIC (Staphylococcus aureus [8]): 0.125 µg/mL (≈ 0.181 µM)
Ratio (Staphylococcus aureus [9]): >4

C=C[C@]1(C)C[C@@H](OC(=O)CSc2nc(N)nc3c2ncn3C(=O)c2ccc(C)cc2)[C@@]2(C)C3C(=O)CC[C@@]3(CC[C@H]2C)[C@@H](C)[C@@H]1O (stereo partly specified)
Ratio [2]: >4
MIC (Staphylococcus aureus [3]): 0.25 µg/mL (≈ 0.387 µM)
MIC (Staphylococcus aureus [4]): 0.125 µg/mL (≈ 0.194 µM)
MIC [5]: 0.0078 µg/mL (≈ 0.0121 µM)
MIC [6]: 0.125 µg/mL (≈ 0.194 µM)
MIC (Staphylococcus aureus [7]): 0.125 µg/mL (≈ 0.194 µM)
MIC (Staphylococcus aureus [8]): 0.125 µg/mL (≈ 0.194 µM)
Ratio (Staphylococcus aureus [9]): >4

C=C[C@]1(C)C[C@@H](OC(=O)CSc2nc(N)nc3c2ncn3C(=O)NCc2cccc([N+](=O)[O-])c2)[C@@]2(C)C3C(=O)CC[C@@]3(CC[C@H]2C)[C@@H](C)[C@@H]1O (stereo partly specified)
Ratio (Staphylococcus aureus [1]): 4
Ratio [2]: >4
MIC (Staphylococcus aureus [3]): 0.0625 µg/mL (≈ 0.0885 µM)
MIC (Staphylococcus aureus [4]): 0.0312 µg/mL (≈ 0.0443 µM)
MIC [5]: < 0.0078 µg/mL
MIC [6]: 0.0625 µg/mL (≈ 0.0885 µM)
MIC (Staphylococcus aureus [7]): 0.0625 µg/mL (≈ 0.0885 µM)
MIC (Staphylococcus aureus [8]): 0.0625 µg/mL (≈ 0.0885 µM)
Ratio (Staphylococcus aureus [9]): >4

C=C[C@]1(C)C[C@@H](OC(=O)CSc2nc(NC(=O)CN3CCNCC3)nc3[nH]cnc23)[C@@]2(C)C3C(=O)CC[C@@]3(CC[C@H]2C)[C@@H](C)[C@@H]1O (stereo partly specified)
Ratio [2]: >4
MIC (Staphylococcus aureus [3]): 64 µg/mL (≈ 97.9 µM)
MIC (Staphylococcus aureus [4]): 32 µg/mL (≈ 48.9 µM)
MIC [5]: 4 µg/mL (≈ 6.12 µM)
MIC [6]: 16 µg/mL (≈ 24.5 µM)
MIC (Staphylococcus aureus [7]): 32 µg/mL (≈ 48.9 µM)
MIC (Staphylococcus aureus [8]): 32 µg/mL (≈ 48.9 µM)
Ratio (Staphylococcus aureus [9]): >4

C=C[C@]1(C)C[C@@H](OC(=O)CSc2nc(NC(=O)CN3CCN(C)CC3)nc3[nH]cnc23)[C@@]2(C)C3C(=O)CC[C@@]3(CC[C@H]2C)[C@@H](C)[C@@H]1O (stereo partly specified)
Ratio (Staphylococcus aureus [1]): 4
Ratio [2]: >4
MIC (Staphylococcus aureus [3]): 32 µg/mL (≈ 47.9 µM)
MIC (Staphylococcus aureus [4]): 16 µg/mL (≈ 24 µM)
MIC [5]: 4 µg/mL (≈ 5.99 µM)
MIC [6]: 1 µg/mL (≈ 1.5 µM)
MIC (Staphylococcus aureus [7]): 8 µg/mL (≈ 12 µM)
MIC (Staphylococcus aureus [8]): 16 µg/mL (≈ 24 µM)
Ratio (Staphylococcus aureus [9]): >4

C=C[C@]1(C)C[C@@H](OC(=O)CSc2nc(N)nc3c2ncn3C(=O)Nc2ccc(C(C)=O)cc2)[C@@]2(C)C3C(=O)CC[C@@]3(CC[C@H]2C)[C@@H](C)[C@@H]1O (stereo partly specified)
Ratio (Staphylococcus aureus [1]): 4
Ratio [2]: >4
MIC (Staphylococcus aureus [3]): 0.125 µg/mL (≈ 0.181 µM)
MIC (Staphylococcus aureus [4]): 0.0625 µg/mL (≈ 0.0907 µM)
MIC [5]: 0.0156 µg/mL (≈ 0.0226 µM)
MIC [6]: 0.125 µg/mL (≈ 0.181 µM)
MIC (Staphylococcus aureus [7]): 0.125 µg/mL (≈ 0.181 µM)
MIC (Staphylococcus aureus [8]): 0.062 µg/mL (≈ 0.09 µM)
Ratio (Staphylococcus aureus [9]): >4

C=C[C@]1(C)C[C@@H](OC(=O)CSc2nc(NC(=O)CNC3CCOCC3)nc3[nH]cnc23)[C@@]2(C)C3C(=O)CC[C@@]3(CC[C@H]2C)[C@@H](C)[C@@H]1O (stereo partly specified)
Ratio [2]: >4
MIC (Staphylococcus aureus [3]): 16 µg/mL (≈ 23.9 µM)
MIC (Staphylococcus aureus [4]): 0.5 µg/mL (≈ 0.748 µM)
MIC [5]: 2 µg/mL (≈ 2.99 µM)
MIC [6]: 1 µg/mL (≈ 1.5 µM)
MIC (Staphylococcus aureus [7]): 8 µg/mL (≈ 12 µM)
MIC (Staphylococcus aureus [8]): 0.5 µg/mL (≈ 0.748 µM)
Ratio (Staphylococcus aureus [9]): >4
